Tests used:
[1] = biological target: T1, human recombinant HDAC6 (Homo sapiens, UniProt Q9UBN7); test: HDAC6 enzyme activity inhibition assay (in vitro, fluorimetric); type: biochemical; settings: for HDAC6 selectivity (fold): HDAC6 selectivity over HDAC1; for IC50: human recombinant HDAC6, fluorimetric kit, same protocol as HDAC1
T1 construct: purchased Calbiochem 382180
T1 sequence (Q9UBN7 1-1215): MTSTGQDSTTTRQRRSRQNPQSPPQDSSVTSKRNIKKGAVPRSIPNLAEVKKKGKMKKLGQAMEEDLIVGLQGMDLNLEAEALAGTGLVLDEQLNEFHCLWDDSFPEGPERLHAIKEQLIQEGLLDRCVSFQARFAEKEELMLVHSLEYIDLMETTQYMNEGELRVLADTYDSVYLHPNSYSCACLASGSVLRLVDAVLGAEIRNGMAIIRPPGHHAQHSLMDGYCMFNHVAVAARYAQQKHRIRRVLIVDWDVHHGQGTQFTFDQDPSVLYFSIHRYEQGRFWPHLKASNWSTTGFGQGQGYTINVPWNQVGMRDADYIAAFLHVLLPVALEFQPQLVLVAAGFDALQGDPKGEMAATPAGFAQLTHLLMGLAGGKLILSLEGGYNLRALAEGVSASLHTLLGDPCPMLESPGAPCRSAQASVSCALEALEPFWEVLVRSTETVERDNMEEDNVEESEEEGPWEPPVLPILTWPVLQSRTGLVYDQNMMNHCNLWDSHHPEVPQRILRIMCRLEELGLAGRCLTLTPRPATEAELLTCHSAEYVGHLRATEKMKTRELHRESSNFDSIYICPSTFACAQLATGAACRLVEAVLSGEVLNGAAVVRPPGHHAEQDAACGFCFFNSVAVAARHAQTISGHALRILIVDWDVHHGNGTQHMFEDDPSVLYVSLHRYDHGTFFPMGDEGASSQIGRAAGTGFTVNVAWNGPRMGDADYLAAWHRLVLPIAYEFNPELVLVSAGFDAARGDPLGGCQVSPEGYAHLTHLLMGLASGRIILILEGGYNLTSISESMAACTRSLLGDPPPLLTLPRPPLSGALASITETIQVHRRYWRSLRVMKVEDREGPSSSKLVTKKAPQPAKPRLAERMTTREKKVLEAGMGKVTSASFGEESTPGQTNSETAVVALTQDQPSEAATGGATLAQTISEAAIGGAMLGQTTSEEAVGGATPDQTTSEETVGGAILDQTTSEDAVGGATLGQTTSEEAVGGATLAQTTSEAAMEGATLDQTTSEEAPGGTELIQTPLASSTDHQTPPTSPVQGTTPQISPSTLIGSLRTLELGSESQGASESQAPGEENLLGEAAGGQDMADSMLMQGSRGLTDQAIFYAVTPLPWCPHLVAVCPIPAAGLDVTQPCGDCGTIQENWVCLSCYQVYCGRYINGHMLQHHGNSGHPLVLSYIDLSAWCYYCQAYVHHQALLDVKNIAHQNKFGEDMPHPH
How it was run: (§1)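 IC50 values derive from fluorescence (Ex 360, Em 460) after developer treatment (30 min) of reactions of recombinant human HDAC1 or HDAC6 with 10 μM Fluor de Lys-SIRT1 substrate (60 min, 30 °C). Compounds were serially diluted 5-fold; 0.3 μg enzyme was used for HDAC1, with HDAC6 tested identically.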

[2] = biological target: T2, human recombinant HDAC1 (Homo sapiens, UniProt Q13547); test: HDAC1 enzyme activity inhibition assay (in vitro, fluorimetric); type: biochemical; settings: human recombinant HDAC1, fluorimetric kit, 30° C. 60 minutes
T2 construct: purchased Enzo Life Science BML-SE456
How it was run: as §1

T2 sequence (Q13547 whole entry): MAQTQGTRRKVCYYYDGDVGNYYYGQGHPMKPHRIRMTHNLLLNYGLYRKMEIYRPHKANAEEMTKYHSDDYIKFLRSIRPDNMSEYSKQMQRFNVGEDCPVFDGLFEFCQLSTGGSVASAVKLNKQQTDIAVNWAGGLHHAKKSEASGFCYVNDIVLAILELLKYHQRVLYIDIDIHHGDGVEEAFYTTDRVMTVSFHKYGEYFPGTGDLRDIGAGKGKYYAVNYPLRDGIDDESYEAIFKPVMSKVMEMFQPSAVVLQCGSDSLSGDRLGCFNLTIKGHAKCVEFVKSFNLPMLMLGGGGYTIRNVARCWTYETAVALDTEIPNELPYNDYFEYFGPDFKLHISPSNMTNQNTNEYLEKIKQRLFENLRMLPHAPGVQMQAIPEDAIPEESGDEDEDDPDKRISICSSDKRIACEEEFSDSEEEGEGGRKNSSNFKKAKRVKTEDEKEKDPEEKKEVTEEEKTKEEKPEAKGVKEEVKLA

CCN(CC)C[C@@H](C)NCc1cccc(CN2[C@H](C)CN(Cc3ccc(C(=O)NO)cc3)C[C@@H]2C)c1 [Compound 455, 4-(((3R,5S)-4-(3-(((1-(diethylamino)propan-2-yl)amino)methyl)benzyl)-3,5-dimethylpiperazin-1-yl)methyl)-N-hydroxybenzamide]
HDAC6 selectivity (fold) [1]: 93 fold
IC50 [1]: 103 nM
IC50 [2]: 9600 nM

CC(CN(C)Cc1ccccc1)NCc1cccc(CN2[C@H](C)CN(Cc3ccc(C(=O)NO)cc3)C[C@@H]2C)c1 (stereo partly drawn) [Compound 456, 4-(((3R,5S)-4-(3-(((1-(benzyl(methyl)amino)propan-2-yl)amino)methyl)benzyl)-3,5-dimethylpiperazin-1-yl)methyl)-N-hydroxybenzamide]
HDAC6 selectivity (fold) [1]: 77 fold
IC50 [1]: 144 nM
IC50 [2]: 11100 nM

C[C@@H]1CN(Cc2ccc(C(=O)NO)cc2)C[C@H](C)N1Cc1ccccc1CN1CCOCC1 [Compound 457, 4-(((3R,5S)-3,5-dimethyl-4-(2-(morpholinomethyl)benzyl)piperazin-1-yl)methyl)-N-hydroxybenzamide]
HDAC6 selectivity (fold) [1]: 2 fold
IC50 [1]: 146 nM
IC50 [2]: 300 nM

C[C@@H]1CN(Cc2ccc(C(=O)NO)cc2)C[C@H](C)N1C(=O)c1ccc(CN2CCOCC2)cc1 [Compound 458, 4-(((3R,5S)-3,5-dimethyl-4-(4-(morpholinomethyl)benzoyl)piperazin-1-yl)methyl)-N-hydroxybenzamide]
HDAC6 selectivity (fold) [1]: 21 fold
IC50 [1]: 286 nM
IC50 [2]: 6100 nM

C[C@@H]1CN(Cc2ccc(C(=O)NO)cc2)C[C@H](C)N1C(=O)c1ccc(CN2CCCCC2)cc1 [Compound 459, 4-(((3R,5S)-3,5-dimethyl-4-(4-(piperidin-1-ylmethyl)benzoyl)piperazin-1-yl)methyl)-N-hydroxybenzamide]
HDAC6 selectivity (fold) [1]: 25 fold
IC50 [1]: 149 nM
IC50 [2]: 3800 nM

C[C@@H]1CN(Cc2ccc(C(=O)NO)cc2)C[C@H](C)N1C(=O)c1ccc(CN2CC[C@@H](F)C2)cc1 [Compound 460, 4-(((3R,5S)-4-(4-(((R)-3-fluoropyrrolidin-1-yl)methyl)benzoyl)-3,5-dimethylpiperazin-1-yl)methyl)-N-hydroxybenzamide]
HDAC6 selectivity (fold) [1]: 20 fold
IC50 [1]: 219 nM
IC50 [2]: 4400 nM

C[C@@H]1CN(Cc2ccc(C(=O)NO)cc2)C[C@H](C)N1C(=O)c1ccc(CN2CCCC2)cc1 [Compound 461, 4-(((3R,5S)-3,5-dimethyl-4-(4-(pyrrolidin-1-ylmethyl)benzoyl)piperazin-1-yl)methyl)-N-hydroxybenzamide]
HDAC6 selectivity (fold) [1]: 18 fold
IC50 [1]: 238 nM
IC50 [2]: 4200 nM

C[C@@H]1CN(Cc2ccc(C(=O)NO)cc2)C[C@H](C)N1C(=O)c1ccc(CN2CCN(C)CC2)cc1 [Compound 462, 4-(((3R,5S)-3,5-dimethyl-4-(4-((4-methylpiperazin-1-yl)methyl)benzoyl)piperazin-1-yl)methyl)-N-hydroxybenzamide]
HDAC6 selectivity (fold) [1]: 12 fold
IC50 [1]: 264 nM
IC50 [2]: 3200 nM

C[C@@H]1CN(Cc2ccc(C(=O)NO)cc2)C[C@H](C)N1C(=O)c1ccc(CN2CCN(S(C)(=O)=O)CC2)cc1 [Compound 463, 4-(((3R,5S)-3,5-dimethyl-4-(4-((4-(methylsulfonyl)piperazin-1-yl)methyl)benzoyl)piperazin-1-yl)methyl)-N-hydroxybenzamide]
HDAC6 selectivity (fold) [1]: 18 fold
IC50 [1]: 256 nM
IC50 [2]: 4700 nM

C[C@@H]1CN(Cc2ccc(C(=O)NO)cc2)C[C@H](C)N1Cc1ccc(CN2CCCC2)cc1 [Compound 466, 4-(((3R,5S)-3,5-dimethyl-4-(4-(pyrrolidin-1-ylmethyl)benzyl)piperazin-1-yl)methyl)-N-hydroxybenzamide]
HDAC6 selectivity (fold) [1]: 35 fold
IC50 [1]: 19 nM
IC50 [2]: 700 nM

C[C@@H]1CN(Cc2ccc(C(=O)NO)cc2)C[C@H](C)N1Cc1ccc(CN2CCCCC2)cc1 [Compound 467, 4-(((3R,5S)-3,5-dimethyl-4-(4-(piperidin-1-ylmethyl)benzyl)piperazin-1-yl)methyl)-N-hydroxybenzamide]
HDAC6 selectivity (fold) [1]: >204 fold
IC50 [1]: 49 nM
IC50 [2]: > 10000 nM

C[C@@H]1CN(Cc2ccc(C(=O)NO)cc2)C[C@H](C)N1Cc1ccc(CN2CCN(C)CC2)cc1 [Compound 468, 4-(((3R,5S)-3,5-dimethyl-4-(4-((4-methylpiperazin-1-yl)methyl)benzyl)piperazin-1-yl)methyl)-N-hydroxybenzamide]
HDAC6 selectivity (fold) [1]: 690 fold
IC50 [1]: 29 nM
IC50 [2]: 20000 nM

C[C@@H]1CN(Cc2ccc(/C=C/C(=O)NO)cc2)C[C@H](C)N1Cc1cccc(CN2CCOCC2)c1 [Compound 472, (E)-3-(4-(((3R,5S)-3,5-dimethyl-4-(3-(morpholinomethyl)benzyl)piperazin-1-yl)methyl)phenyl)-N-hydroxyacrylamide]
HDAC6 selectivity (fold) [1]: 3 fold
IC50 [1]: 55 nM
IC50 [2]: 200 nM

C[C@@H]1CN(Cc2cccc(CN3CCCC3)c2)C[C@H](C)N1Cc1ccc(/C=C/C(=O)NO)cc1 [Compound 475, (E)-3-(4-(((2S,6R)-2,6-dimethyl-4-(3-(pyrrolidin-1-ylmethyl)benzyl)piperazin-1-yl)methyl)phenyl)-N-hydroxyacrylamide]
HDAC6 selectivity (fold) [1]: 7 fold
IC50 [1]: 114 nM
IC50 [2]: 800 nM

CCN(CC)Cc1cccc(CN2C[C@@H](C)N(Cc3ccc(/C=C/C(=O)NO)cc3)[C@@H](C)C2)c1 [Compound 476, (E)-3-(4-(((2S,6R)-4-(3-((diethylamino)methyl)benzyl)-2,6-dimethylpiperazin-1-yl)methyl)phenyl)-N-hydroxyacrylamide]
HDAC6 selectivity (fold) [1]: 6 fold
IC50 [1]: 142 nM
IC50 [2]: 900 nM

C[C@@H]1CN(Cc2ccc(-c3ccco3)cc2)C[C@H](C)N1Cc1ccc(/C=C/C(=O)NO)cc1 [Compound 477, (E)-3-(4-(((2S,6R)-4-(4-(furan-2-yl)benzyl)-2,6-dimethylpiperazin-1-yl)methyl)phenyl)-N-hydroxyacrylamide]
HDAC6 selectivity (fold) [1]: 11 fold
IC50 [1]: 253 nM
IC50 [2]: 2700 nM

CCN(CC)Cc1cccc(CN2C[C@@H](C)N(Cc3ccc(C(=O)NO)cc3)[C@@H](C)C2)c1 [Compound 478, 4-(((2S,6R)-4-(3-((diethylamino)methyl)benzyl)-2,6-dimethylpiperazin-1-yl)methyl)-N-hydroxybenzamide]
HDAC6 selectivity (fold) [1]: 10 fold
IC50 [1]: 640 nM
IC50 [2]: 6570 nM

C[C@@H]1CN(Cc2cccc(CN3CCCC3)c2)C[C@H](C)N1Cc1ccc(C(=O)NO)cc1 [Compound 479, 4-(((2S,6R)-2,6-dimethyl-4-(3-(pyrrolidin-1-ylmethyl)benzyl)piperazin-1-yl)methyl)-N-hydroxybenzamide]
HDAC6 selectivity (fold) [1]: 12 fold
IC50 [1]: 433 nM
IC50 [2]: 5300 nM

C[C@@H]1CN(C(=O)c2cccc(CN3CCCC3)c2)C[C@H](C)N1Cc1ccc(/C=C/C(=O)NO)cc1 [Compound 480, (E)-3-(4-(((2S,6R)-2,6-dimethyl-4-(3-(pyrrolidin-1-ylmethyl)benzoyl)piperazin-1-yl)methyl)phenyl)-N-hydroxyacrylamide]
HDAC6 selectivity (fold) [1]: 2 fold
IC50 [1]: 467 nM
IC50 [2]: 1000 nM

C[C@@H]1CN(Cc2ccc(C(=O)NO)cc2)C[C@H](C)N1Cc1ccccc1C1=CCN(S(C)(=O)=O)CC1 [Compound 481, 4-(((3R,5S)-3,5-dimethyl-4-(2-(1-(methylsulfonyl)-1,2,3,6-tetrahydropyridin-4-yl)benzyl)piperazin-1-yl)methyl)-N-hydroxybenzamide]
HDAC6 selectivity (fold) [1]: 153 fold
IC50 [1]: 106 nM
IC50 [2]: 16200 nM

CC(=O)N1CC=C(c2ccccc2CN2[C@H](C)CN(Cc3ccc(C(=O)NO)cc3)C[C@@H]2C)CC1 [Compound 482, 4-(((3R,5S)-4-(2-(1-acetyl-1,2,3,6-tetrahydropyridin-4-yl)benzyl)-3,5-dimethylpiperazin-1-yl)methyl)-N-hydroxybenzamide]
HDAC6 selectivity (fold) [1]: 121 fold
IC50 [1]: 103 nM
IC50 [2]: 12500 nM

Source: patent US10287255B2, “Compounds as histone deacetylase 6 inhibitors and pharmaceutical compositions comprising the same” (CHONG KUN DANG PHARMACEUTICAL CORP., priority 2014, dated 2019)
